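In this assay, cells in 96-well plates receive the compound at five concentrations for 48 hours. Endpoints are linearly interpolated between the surrounding concentrations. At the GI50, growth is halved.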 Activity calls are given as the source filed them. Rule as the data show it: active = GI50 up to about 1.1 µM and inactive = higher.
What was measured:
Experiment in all cases: inhibition of tumour cell growth, NCI panel, 48 h
HCT-15 = test system: HCT-15
Hs-578T = test system: Hs-578T
MCF7 = test system: MCF7
MDA-MB-231 = test system: MDA-MB-231
MDA-MB-435 = test system: MDA-MB-435
NCI-H226 = test system: NCI-H226
NCI-H460 = test system: NCI-H460
NCI/ADR-RES = test system: NCI/ADR-RES
OVCAR-4 = test system: OVCAR-4
OVCAR-5 = test system: OVCAR-5
RPMI-8226 = test system: RPMI-8226
SF-295 = test system: SF-295
SK-MEL-28 = test system: SK-MEL-28
SK-MEL-2 = test system: SK-MEL-2
SNB-19 = test system: SNB-19
SW-620 = test system: SW-620
U-251 = test system: U-251
UACC-62 = test system: UACC-62
HCC 2998 = test system: HCC 2998
SN12C = test system: SN12C

Structure (SMILES) | GI50 (HCT-15) | GI50 (Hs-578T) | GI50 (MCF7) | GI50 (MDA-MB-231) | GI50 (MDA-MB-435) | GI50 (NCI-H226) | GI50 (NCI-H460) | GI50 (NCI/ADR-RES) | GI50 (OVCAR-4) | GI50 (OVCAR-5) | GI50 (RPMI-8226) | GI50 (SF-295) | GI50 (SK-MEL-28) | GI50 (SK-MEL-2) | GI50 (SNB-19) | GI50 (SW-620) | GI50 (U-251) | GI50 (UACC-62) | GI50 (HCC 2998) | GI50 (SN12C)
Cc1nn(-c2ccccc2)c2c1CC(=O)Nc1ccccc1-2 | 0.618 µM | 0.522 µM (active) | 0.372 µM (active) | 1.48 µM (inactive) | 0.204 µM (active) | 5.01 µM (inactive) | 0.521 µM (active) | 0.413 µM (active) | 18.5 µM (inactive) | 4.82 µM (inactive) | 0.484 µM (active) | 0.318 µM (active) | 0.839 µM (active) | 1.65 µM (inactive) | 2.55 µM (inactive) | 0.374 µM (active) | 0.743 µM (active) | 0.521 µM (active) | – | –
C/C(=N/NC(=S)N1CCCCC1)c1cccc(/C(C)=N\NC(=S)N2CCCCC2)n1 | 1.66 µM | 2.38 µM (inactive) | 1.86 µM (inactive) | 1.31 µM (inactive) | 1.92 µM (inactive) | 2.05 µM (inactive) | 1.89 µM (inactive) | 2.06 µM (inactive) | – | 0.423 µM (active) | 2.3 µM (inactive) | 1.95 µM (inactive) | 2.01 µM (inactive) | 2.1 µM (inactive) | 2.47 µM (inactive) | 3.15 µM (inactive) | 2.04 µM (inactive) | 2.42 µM (inactive) | 2.33 µM (inactive) | 1.93 µM (inactive)
O=C(Cn1ccc(=O)[nH]c1=O)Nc1ccc(C(=O)O)c(O)c1 | > 100 µM | > 100 µM (inactive) | > 100 µM (inactive) | > 100 µM (inactive) | > 100 µM (inactive) | > 100 µM (inactive) | > 100 µM (inactive) | > 100 µM (inactive) | > 100 µM (inactive) | > 100 µM (inactive) | > 100 µM (inactive) | 18.2 µM (inactive) | > 100 µM (inactive) | > 100 µM (inactive) | > 100 µM (inactive) | > 100 µM (inactive) | > 100 µM (inactive) | > 100 µM (inactive) | – | > 100 µM (inactive)
CSc1ncc2c(n1)-c1ccccc1OC2NC1CC1 (stereo unspecified) | 40.4 µM | 38.1 µM (inactive) | 58.3 µM (inactive) | > 100 µM (inactive) | > 100 µM (inactive) | 25.5 µM (inactive) | 81.8 µM (inactive) | 48.1 µM (inactive) | 30.6 µM (inactive) | > 100 µM (inactive) | 31.3 µM (inactive) | > 100 µM (inactive) | – | > 100 µM (inactive) | > 100 µM (inactive) | > 100 µM (inactive) | 76.2 µM (inactive) | 25.8 µM (inactive) | – | 63.5 µM (inactive)
O=C1[C@@H]2[C@@H](c3ccccc3)[C@]2(Cl)C(=O)[C@H]2[C@H](c3ccccc3)[C@@]12Cl | > 100 µM | > 100 µM (inactive) | > 100 µM (inactive) | > 100 µM (inactive) | > 100 µM (inactive) | > 100 µM (inactive) | > 100 µM (inactive) | > 100 µM (inactive) | > 100 µM (inactive) | > 100 µM (inactive) | – | > 100 µM (inactive) | > 100 µM (inactive) | > 100 µM (inactive) | > 100 µM (inactive) | > 100 µM (inactive) | > 100 µM (inactive) | > 100 µM (inactive) | > 100 µM (inactive) | > 100 µM (inactive)
CN(C)N1C(=O)SCC(c2ccccc2)(c2ccccc2)C1=O | > 100 µM | > 100 µM (inactive) | 54.8 µM (inactive) | > 100 µM (inactive) | > 100 µM (inactive) | > 100 µM (inactive) | > 100 µM (inactive) | > 100 µM (inactive) | – | > 100 µM (inactive) | 78 µM (inactive) | > 100 µM (inactive) | > 100 µM (inactive) | 63.4 µM (inactive) | > 100 µM (inactive) | > 100 µM (inactive) | > 100 µM (inactive) | 56.8 µM (inactive) | > 100 µM (inactive) | > 100 µM (inactive)
CC1(C)O[C@H]2OC(CO)C(OS(C)(=O)=O)[C@H]2O1 (stereo partly specified) | > 100 µM | > 100 µM (inactive) | > 100 µM (inactive) | > 100 µM (inactive) | > 100 µM (inactive) | – | > 100 µM (inactive) | > 100 µM (inactive) | > 10 µM (inactive) | > 100 µM (inactive) | > 100 µM (inactive) | > 100 µM (inactive) | > 100 µM (inactive) | > 100 µM (inactive) | > 100 µM (inactive) | > 100 µM (inactive) | > 100 µM (inactive) | > 100 µM (inactive) | > 100 µM (inactive) | > 100 µM (inactive)
O=C1CSC(/C=C/c2ccccc2)N1c1ccc(-c2ccc(-n3c(-c4ccccc4)nc4ccccc4c3=O)cc2)cc1 (stereo unspecified) | 20.7 µM | > 10 µM (inactive) | 22.6 µM (inactive) | 25.1 µM (inactive) | 19.4 µM (inactive) | – | 30.7 µM (inactive) | 21.1 µM (inactive) | 15.8 µM (inactive) | 6.04 µM (inactive) | 27.9 µM (inactive) | 20.1 µM (inactive) | 18.8 µM (inactive) | 19.1 µM (inactive) | 21.8 µM (inactive) | 19.4 µM (inactive) | 21.5 µM (inactive) | 24.3 µM (inactive) | 66.2 µM (inactive) | 27.4 µM (inactive)
CC(C)(C)C(=O)CC1=Nc2ccccc2SC1(O)CC(=O)C(C)(C)C (stereo unspecified) | 15.3 µM | 20.1 µM (inactive) | 25 µM (inactive) | 17.8 µM (inactive) | 22.6 µM (inactive) | 15.2 µM (inactive) | 13.5 µM (inactive) | 21.9 µM (inactive) | – | 19.8 µM (inactive) | 8.67 µM (inactive) | 24.8 µM (inactive) | 22.8 µM (inactive) | 13.7 µM (inactive) | 35.6 µM (inactive) | 25.5 µM (inactive) | 22.2 µM (inactive) | 11.8 µM (inactive) | 14.8 µM (inactive) | 21 µM (inactive)
Cc1cn(C2CC(O)C(COC(N)=O)O2)c(=O)[nH]c1=O (stereo unspecified) | > 100 µM | > 100 µM (inactive) | > 100 µM (inactive) | > 100 µM (inactive) | > 100 µM (inactive) | > 100 µM (inactive) | > 100 µM (inactive) | > 100 µM (inactive) | > 100 µM (inactive) | > 100 µM (inactive) | > 100 µM (inactive) | > 100 µM (inactive) | > 100 µM (inactive) | > 100 µM (inactive) | > 100 µM (inactive) | > 100 µM (inactive) | > 100 µM (inactive) | > 100 µM (inactive) | – | > 100 µM (inactive)
CC1(C)OC2COC(c3n[nH]c4c(=O)[nH]c(=O)[nH]c34)C2O1 (stereo unspecified) | > 100 µM | > 100 µM (inactive) | > 100 µM (inactive) | > 100 µM (inactive) | > 100 µM (inactive) | > 100 µM (inactive) | > 100 µM (inactive) | > 100 µM (inactive) | > 100 µM (inactive) | > 100 µM (inactive) | > 100 µM (inactive) | > 100 µM (inactive) | > 100 µM (inactive) | > 100 µM (inactive) | > 100 µM (inactive) | > 100 µM (inactive) | > 100 µM (inactive) | > 100 µM (inactive) | – | > 100 µM (inactive)
C=C[C@@H]1OC(=O)O[C@H]1CO | > 100 µM | > 100 µM (inactive) | > 100 µM (inactive) | > 100 µM (inactive) | > 100 µM (inactive) | > 100 µM (inactive) | – | > 100 µM (inactive) | > 100 µM (inactive) | > 100 µM (inactive) | > 100 µM (inactive) | > 100 µM (inactive) | > 100 µM (inactive) | > 100 µM (inactive) | > 100 µM (inactive) | > 100 µM (inactive) | > 100 µM (inactive) | > 100 µM (inactive) | – | > 100 µM (inactive)
C=C(C)CC1(O[Si](C)(C)C)C(=O)C(OCC)=C1OCC (stereo unspecified) | > 100 µM | > 100 µM (inactive) | > 100 µM (inactive) | > 100 µM (inactive) | > 100 µM (inactive) | > 100 µM (inactive) | > 100 µM (inactive) | > 100 µM (inactive) | > 100 µM (inactive) | > 100 µM (inactive) | – | > 100 µM (inactive) | > 100 µM (inactive) | > 100 µM (inactive) | > 100 µM (inactive) | > 100 µM (inactive) | > 100 µM (inactive) | > 100 µM (inactive) | – | > 100 µM (inactive)
O=C(Nc1ccc2nc(O)n[n+]([O-])c2c1)C(F)(F)F | > 100 µM | > 100 µM (inactive) | > 100 µM (inactive) | > 100 µM (inactive) | > 100 µM (inactive) | > 100 µM (inactive) | > 100 µM (inactive) | > 100 µM (inactive) | > 100 µM (inactive) | > 100 µM (inactive) | > 100 µM (inactive) | > 100 µM (inactive) | > 100 µM (inactive) | > 100 µM (inactive) | > 100 µM (inactive) | > 100 µM (inactive) | > 100 µM (inactive) | > 100 µM (inactive) | – | > 100 µM (inactive)
CC(=O)OC1=NN=C2COC(c3ccccc3OC(C)=O)=NN2C1 | > 50 µM | 24 µM (inactive) | > 50 µM (inactive) | > 50 µM (inactive) | > 50 µM (inactive) | – | > 50 µM (inactive) | > 50 µM (inactive) | > 50 µM (inactive) | > 50 µM (inactive) | > 50 µM (inactive) | > 50 µM (inactive) | 21.9 µM (inactive) | 36.2 µM (inactive) | > 50 µM (inactive) | > 50 µM (inactive) | > 50 µM (inactive) | 28.1 µM (inactive) | > 50 µM (inactive) | > 50 µM (inactive)

— ChEMBL document CHEMBL1201862, “PubChem BioAssay data set” (2004)
